Some test systems named below: MDA-N; SK-OV-3; OVCAR-8; DU-145; CCRF-CEM; SW-620; OVCAR-3; KM12; SF-295; HOP-92; T47D; OVCAR-4; SF-268; UACC-62; HCT-116; BT-549; SR; A549; NCI-H23; MDA-MB-435.
Common to all, as to test: NCI-60 cell line screen, 48 h

Each structure is given as a SMILES string.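 In this assay, cells in 96-well plates receive the compound at five concentrations for 48 hours. Endpoints are linearly interpolated between the surrounding concentrations. GI50 = concentration required for 50% inhibition of growth.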 Activity calls are given as the source filed them. Cut-off read from the data, not from the text of the source: active = GI50 up to about 1.1 µM and inactive = higher.

On to `O=C1C=Cc2c(I)sc(I)c21`, for which the GI50 in the assay on MDA-N is 24.9 µM (inactive); in the assay with SK-OV-3 it was 89.7 µM (inactive); with OVCAR-8 it was 18.9 µM (inactive); in the assay with DU-145 it was 30 µM (inactive); with CCRF-CEM it was 2.88 µM (inactive); in the assay with SW-620 it was 13.4 µM (inactive). For the same compound, the GI50 is 19.3 µM (inactive) in the assay with OVCAR-3; 20 µM (inactive) in the assay on KM12; 46.8 µM (inactive) in the assay with SF-295; 17 µM (inactive) in the assay with HOP-92; 18.1 µM (inactive) in the assay with T47D; 20 µM (inactive) with OVCAR-4. In addition, the GI50 was 12.4 µM (inactive) in the assay with SF-268; 28.8 µM (inactive) in the assay with UACC-62; 15.7 µM (inactive) in the assay with HCT-116; 17.6 µM (inactive) in the assay with BT-549; 4 µM (inactive) in the assay on SR; 26.2 µM (inactive) with A549. Besides, the GI50 with NCI-H23 is 18.9 µM (inactive); in the assay on MDA-MB-435, 19.4 µM (inactive).

As to `c1cc(-c2csc(-c3ccsc3)c2)cs1`, the GI50 in the assay on MDA-N, in the assay with SK-OV-3, in the assay on OVCAR-8, with DU-145, in the assay with CCRF-CEM and in the assay on SW-620 was > 100 µM (inactive) each time. The GI50 with OVCAR-3 is 52.1 µM (inactive); in the assay on KM12, 63.4 µM (inactive); in the assay on SF-295 it was > 100 µM (inactive); with HOP-92 it was > 100 µM (inactive); with T47D, > 100 µM (inactive); with OVCAR-4, > 100 µM (inactive). The GI50 in the assay on SF-268, in the assay with UACC-62, in the assay with HCT-116, in the assay on BT-549, in the assay with SR and in the assay with A549 was > 100 µM (inactive) each time. Moreover, the GI50 in the assay on NCI-H23 and in the assay with MDA-MB-435 was > 100 µM (inactive) throughout.

Turning to `COC(=O)C1SC(N(C)c2ccccc2)=NC12c1ccccc1Nc1ccccc12` (stereo not given), the GI50 in the assay on MDA-N is 23.1 µM (inactive); in the assay with SK-OV-3 it was 39.8 µM (inactive); in the assay on OVCAR-8, 8.89 µM (inactive); in the assay on DU-145 it was 25.7 µM (inactive); in the assay with CCRF-CEM it was 6.71 µM (inactive); with SW-620, 27.9 µM (inactive). The GI50 in the assay with OVCAR-3 was 11 µM (inactive); in the assay on KM12, 18.3 µM (inactive); in the assay with SF-295, 17.2 µM (inactive); in the assay with HOP-92, 14.1 µM (inactive); in the assay on T47D, 15.7 µM (inactive); in the assay on OVCAR-4 it was 19.7 µM (inactive). Besides, the GI50 with SF-268 was 21 µM (inactive); in the assay with UACC-62, 13.6 µM (inactive); in the assay with HCT-116 it was 23.3 µM (inactive); in the assay with BT-549, 15.9 µM (inactive); in the assay on SR it was 15.3 µM (inactive); with A549, 20.3 µM (inactive). Further, the GI50 is 13.6 µM (inactive) in the assay on NCI-H23 and 17.6 µM (inactive) with MDA-MB-435.

For the compound `CCCCCc1cc(CCCC)sc1-c1ccco1`, the GI50 is > 80.5 µM (inactive) in the assay on MDA-N; > 100 µM (inactive) in the assay on SK-OV-3; > 100 µM (inactive) in the assay on OVCAR-8; > 100 µM (inactive) in the assay with DU-145; 30.5 µM (inactive) in the assay with CCRF-CEM; > 100 µM (inactive) in the assay with SW-620. The GI50 in the assay on OVCAR-3 is > 74.8 µM (inactive); in the assay with KM12, > 86.9 µM (inactive); with SF-295 it was > 85.5 µM (inactive); in the assay with HOP-92 it was > 100 µM (inactive); in the assay with T47D, > 91.2 µM (inactive); in the assay with OVCAR-4, > 100 µM (inactive). Also, the GI50 in the assay on SF-268 is > 100 µM (inactive); in the assay with UACC-62, > 100 µM (inactive); with HCT-116, 29.6 µM (inactive); in the assay with BT-549 it was > 100 µM (inactive); in the assay on SR it was 44.2 µM (inactive); in the assay on A549 it was 40 µM (inactive). Further, the values for the GI50 with NCI-H23 and with MDA-MB-435 were > 100 µM (inactive) and 66.5 µM (inactive), respectively.

For the compound `O=C1C=CC(=O)c2c1ccc1c3ccccc3n(-c3ccccc3)c21`, the GI50 in the assay with MDA-N was 5.64 µM (inactive); in the assay on SK-OV-3, 16.8 µM (inactive); in the assay on OVCAR-8 it was 4.56 µM (inactive); in the assay with DU-145, 19.8 µM (inactive); in the assay with CCRF-CEM, 0.304 µM (active); in the assay with SW-620, 2.29 µM (inactive). Moreover, the GI50 is 8.83 µM (inactive) with OVCAR-3; 17.9 µM (inactive) in the assay with KM12; 14.6 µM (inactive) in the assay with SF-295; 2.61 µM (inactive) with HOP-92; 2.05 µM (inactive) in the assay on T47D; 13.9 µM (inactive) in the assay with OVCAR-4. For the same compound, the GI50 was 17.4 µM (inactive) in the assay with SF-268; 13 µM (inactive) in the assay on UACC-62; 2.37 µM (inactive) in the assay with HCT-116; 13.5 µM (inactive) in the assay with BT-549; 0.271 µM (active) with SR; 20.5 µM (inactive) in the assay on A549. Moreover, the GI50 with NCI-H23 was 15.4 µM (inactive); in the assay with MDA-MB-435 it was 14.1 µM (inactive).

Regarding `CCN1CCN(c2nc3ccccc3c3c2CCOc2ccccc2-3)CC1`, the GI50 was 25.7 µM (inactive) in the assay on MDA-N; > 47.8 µM (inactive) with SK-OV-3; > 45.1 µM (inactive) in the assay on OVCAR-8; > 31.6 µM (inactive) in the assay with DU-145; 21.3 µM (inactive) in the assay on CCRF-CEM; 24.9 µM (inactive) in the assay with SW-620. For the same compound, the GI50 was > 69 µM (inactive) in the assay on OVCAR-3; 24.9 µM (inactive) with KM12; 27.4 µM (inactive) with SF-295; 28.8 µM (inactive) in the assay on HOP-92; 35.5 µM (inactive) in the assay with T47D; > 53.2 µM (inactive) in the assay with OVCAR-4. Also, the GI50 in the assay with SF-268 was 39.1 µM (inactive); in the assay on UACC-62, 17.7 µM (inactive); in the assay with HCT-116 it was 29.3 µM (inactive); with BT-549, > 100 µM (inactive); in the assay with SR, 2.85 µM (inactive); with A549, 45.8 µM (inactive). Besides, the GI50 with NCI-H23 is > 62.5 µM (inactive); in the assay on MDA-MB-435, 24.9 µM (inactive).

As to `O=C1C(SCCO)=C(SCCO)C(=O)c2ccccc21`, the GI50 in the assay with MDA-N is 0.167 µM (active); in the assay with SK-OV-3, 1.66 µM (inactive); in the assay with OVCAR-8, 0.579 µM (active); in the assay on DU-145, 2.05 µM (inactive); with CCRF-CEM, 0.916 µM (active); in the assay with SW-620, 0.695 µM (active). Besides, the GI50 in the assay with OVCAR-3 was 0.986 µM (active); with KM12, 1.75 µM (inactive); in the assay with SF-295 it was 1.48 µM (inactive); with HOP-92 it was 0.805 µM (active); in the assay on T47D, 1.22 µM (inactive); with OVCAR-4, 0.252 µM (active). Besides, the GI50 with SF-268 was 1.56 µM (inactive); with UACC-62, 1.44 µM (inactive); in the assay on HCT-116 it was 1.86 µM (inactive); in the assay on BT-549, 1.43 µM (inactive); with SR, 1.51 µM (inactive); in the assay on A549, 1.29 µM (inactive). Further, the GI50 is 0.518 µM (active) in the assay on NCI-H23 and 0.186 µM (active) with MDA-MB-435.

These data come from ChEMBL document CHEMBL1201862, “PubChem BioAssay data set” (2004).
